According to ChEMBL document CHEMBL1133325, “Synthesis and biological activity of fluoro-substituted pyrrolo[2,3-d]pyrimidines: the development of potential positron emission tomography imaging agents for the corticotropin-releasing hormone type 1 receptor” (Bioorg Med Chem Lett, 2000):
pKi: −log10 of the molar value.

target: T1, Corticotropin-releasing factor receptor 1 (Rattus norvegicus, UniProt P35353); experiment: Compound was tested in vitro for its ability to displace [125 I]Tyr-sauvagine from corticotropin-releasing hormone type 1 receptor in rat cerebellum; type: tissue-based
T1 sequence (P35353 whole entry): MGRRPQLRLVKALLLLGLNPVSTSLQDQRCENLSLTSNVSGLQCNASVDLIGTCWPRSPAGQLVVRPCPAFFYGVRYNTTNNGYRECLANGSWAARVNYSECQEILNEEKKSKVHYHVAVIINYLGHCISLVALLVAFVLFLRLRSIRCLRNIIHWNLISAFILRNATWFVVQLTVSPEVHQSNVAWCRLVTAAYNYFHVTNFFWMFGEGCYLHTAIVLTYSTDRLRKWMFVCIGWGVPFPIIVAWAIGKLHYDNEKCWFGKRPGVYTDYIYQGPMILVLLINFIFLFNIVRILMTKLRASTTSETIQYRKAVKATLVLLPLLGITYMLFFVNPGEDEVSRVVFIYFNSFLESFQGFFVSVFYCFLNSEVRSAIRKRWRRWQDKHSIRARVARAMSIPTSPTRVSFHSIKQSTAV

| pKi | Compound |
| --- | --- |
| 8.00 | CCCCN(CCCCF)c1nc(C)nc2c1c(C)c(C)n2-c1c(C)cc(C)cc1C |
| 7.52 | Cc1cc(C)c(-n2c(C)c(C)c3c(N(CCCF)CC4CC4)nc(C)nc32)c(C)c1 |
| 8.64 | CCCN(CC1CC1)c1nc(C)nc2c1c(C)c(C)n2-c1c(C)cc(C)cc1C |
| 8.46 | CCN(CCCCF)c1nc(C)nc2c1c(C)c(C)n2-c1c(C)cc(C)cc1C |
| 9.04 | CCCN(CCCCF)c1nc(C)nc2c1c(C)c(C)n2-c1c(C)cc(C)cc1C |
| 8.60 | CCCCN(CC)c1nc(C)nc2c1c(C)c(C)n2-c1c(C)cc(C)cc1C [ANTALARMIN] |

| Compound | pKi |
| --- | --- |
| Cc1cc(C)c(-n2c(C)c(C)c3c(N4CCN(CCF)CC4)nc(C)nc32)c(C)c1 | < 6.00 |
